Source: patent US5169860A, “Antitumor compositions and methods of treatment” (Eli Lilly and Company, priority 1992, dated 1992)

test system: 6C3HED lymphosarcoma; assay: animal or person; assay type: in vivo, C3H mice; conditions: Mus musculus, 6C3HED, 120 h; 10 mg/kg, oral gavage, daily for 10 days; tumor measured five days after treatment ended; read-out: Percent Inhibition of tumor growth
Protocol: The compounds were tested in C3H mice bearing a 6C3HED lymphosarcoma, also known as the Gardner lymphosarcoma (GLS). The 6C3HED lymphosarcoma was obtained from the Division of Cancer Treatment, National Cancer Institute, Tumor Bank, maintained at E. G. and G. Mason Research (Worcester, Massachusetts).
First passage tumor was stored in liquid nitrogen using standard techniques. The transplanted tumor was reestablished from the Tumor Bank every six months or as needed. The tumor was maintained by serial passage twice weekly in C3H mice.
In the procedures utilized here, the tumor was removed from passage animals and minced into 1- to 3-mm cubic fragments using sterile techniques. Tumor pieces were checked for sterility using both Antibiotic Medium 1 and Brain Heart Infusion (Difco, Detroit, Michigan). The tumor pieces were implanted into the recipient C3H mice subcutaneously in an auxillary site by trochar.
Drug therapy on the appropriate schedule was initiated seven days after tumor implantation. The compound being tested was mixed with 2.5% Emulphor EL620 from GAF Corporation (1:40 dilution in 0.9% saline). The total dosage volume for each administration was 0.5 mL. All animals were weighed at the beginning and end of administration of the subject compounds. Food and water were provided ad libitum
Each control group and each dosage level of the treated groups generally consisted of 10 mice selected at random from the pool of implanted animals. The formulations were administered orally by gavage with the use of an 18-gauge needle. Compounds were dosed daily for 10 days.
The tumor was measured five days after treatment ended with two dimensional measurements (width and length) of the tumor taken using digital electronic calipers interfaced to a microcomputer. J. F. Worzalla, et al.. Investicational New Drugs. 8:241-251 (1990). Tumor weights were calculated from these measurements using the following formula:
Tumor weight (mg)=[tumor length (mm)×[tumor width (mm)]2].div.2
At least one control group of an equal number of mice was treated with the same volume of 2.5% Emulphor only. The percent inhibition was determined by subtracting the ratio of the mean tumor size of the test group relative to the control group from one and multiplying the result by 100.
The results of several experiments in mice bearing the 6C3HED lymphosarcoma when the instant compounds were administered orally are provided in the following table. In this table, column 1 gives the example number of the compound of Formula I administered; column 2 gives the dosage level of the compound in milligrams per kilogram of body weight; column 3 describes the percent inhibition of tumor growth; and column 4 tallies the number of mice which died during the course of the experiment relative to the total number of animals in the group.

Compound | inhibition in vivo at 10 mg/kg [%]
O=C(Nc1ccc(Cl)cc1)NS(=O)(=O)c1ccc2occc2c1 [Example 6, N-[[(4-chlorophenyl)amino]carbonyl]-5-benzofuransulfonamide hemihydrate] | 0

same assay, conditions: Mus musculus, 6C3HED, 120 h; 20 mg/kg, oral gavage, daily for 10 days; tumor measured five days after treatment ended; read-out: Percent Inhibition of tumor growth

Compound | inhibition in vivo at 20 mg/kg [%]
O=C(Nc1ccc(Cl)cc1)NS(=O)(=O)c1ccc2ccoc2c1 [Example 8, N-[[(4-chlorophenyl)amino]carbonyl]-6-benzofuransulfonamide] | 45
O=C(Nc1ccc(Cl)cc1)NS(=O)(=O)c1ccc2occc2c1 [Example 6, N-[[(4-chlorophenyl)amino]carbonyl]-5-benzofuransulfonamide hemihydrate] | 7

same assay, conditions: Mus musculus, 6C3HED, 120 h; 40 mg/kg, oral gavage, daily for 10 days; tumor measured five days after treatment ended; read-out: Percent Inhibition of tumor growth

Compound | inhibition in vivo at 40 mg/kg [%]
O=C(Nc1ccc(Cl)cc1)NS(=O)(=O)c1ccc2sccc2c1 [Example 13, N-[[(4-chlorophenyl)amino]carbonyl]benzo[B]thiophene-5-sulfonamide] | 8
O=C(Nc1ccc(Cl)cc1)NS(=O)(=O)c1ccc2ccoc2c1 [Example 8, N-[[(4-chlorophenyl)amino]carbonyl]-6-benzofuransulfonamide] | 45
O=C(Nc1ccc(Cl)cc1)NS(=O)(=O)c1ccc2occc2c1 [Example 6, N-[[(4-chlorophenyl)amino]carbonyl]-5-benzofuransulfonamide hemihydrate] | 53

same assay, conditions: Mus musculus, 6C3HED, 120 h; 80 mg/kg, oral gavage, daily for 10 days; tumor measured five days after treatment ended; read-out: Percent Inhibition of tumor growth

Compound | inhibition in vivo at 80 mg/kg [%]
O=C(Nc1ccc(Cl)cc1)NS(=O)(=O)c1ccc2sccc2c1 [Example 13, N-[[(4-chlorophenyl)amino]carbonyl]benzo[B]thiophene-5-sulfonamide] | 44
O=C(Nc1ccc(Cl)cc1)NS(=O)(=O)c1ccc2ccoc2c1 [Example 8, N-[[(4-chlorophenyl)amino]carbonyl]-6-benzofuransulfonamide] | 93
O=C(Nc1ccc(Cl)cc1)NS(=O)(=O)c1ccc2occc2c1 [Example 6, N-[[(4-chlorophenyl)amino]carbonyl]-5-benzofuransulfonamide hemihydrate] | 96

same assay, conditions: Mus musculus, 6C3HED, 120 h; 150 mg/kg, oral gavage, daily for 10 days; tumor measured five days after treatment ended; read-out: Percent Inhibition of tumor growth

Compound | inhibition in vivo at 150 mg/kg [%]
O=C(Nc1ccc(Cl)cc1)NS(=O)(=O)c1csc2ccccc12 [Example 12, N-[[(4-chlorophenyl)amino]carbonyl]benzo[B]thiophene-3-sulfonamide] | 43
O=C(Nc1ccc(Cl)cc1)NS(=O)(=O)c1cc2ccccc2o1 [Example 1, N-[[(4-chlorophenyl)amino]carbonyl]-2-benzofuransulfonamide] | 84
O=C(Nc1ccc(Br)cc1)NS(=O)(=O)c1cc2ccccc2o1 [Example 4, N-[[(4-bromophenyl)amino]carbonyl]-2-benzofuransulfonamide] | 48
O=C(Nc1ccc(Cl)cc1)NS(=O)(=O)c1cccc2occc12 [Example 5, N-[[(4-chlorophenyl)amino]carbonyl]-4-benzofuransulfonamide] | 84
O=C(Nc1ccc(Cl)cc1)NS(=O)(=O)c1ccc2cc[nH]c2c1 [Example 10, N-[[(4-chlorophenyl)amino]carbonyl]-lH-indole-6-sulfonamide] | 37
O=C(Nc1ccc(Cl)cc1)NS(=O)(=O)c1cc2ccccc2s1 [Example 11, N-[[(4-chlorophenyl)amino]carbonyl]benzo[B]thiophene-2-sulfonamide] | 47
Cc1ccc(NC(=O)NS(=O)(=O)c2cc3ccccc3o2)cc1 [Example 2, N-[[(4-methylphenyl)amino]carbonyl]-2-benzofuransulfonamide] | 11
O=C(Nc1ccc(Cl)cc1)NS(=O)(=O)c1cc2ccccc2[nH]1 [Example 9, N-[[(4-chlorophenyl)amino]carbonyl]-lH-indole-2-sulfonamide] | 26
O=C(Nc1ccc(Cl)cc1)NS(=O)(=O)c1ccc2occc2c1 [Example 6, N-[[(4-chlorophenyl)amino]carbonyl]-5-benzofuransulfonamide hemihydrate] | 100
O=C(Nc1ccc(Cl)c(Cl)c1)NS(=O)(=O)c1cc2ccccc2o1 [Example 3, N-[[(3,4 dichlorophenyl)amino]carbonyl]-2-benzofuransulfonamide] | 28
Cc1ccc(NC(=O)NS(=O)(=O)c2ccc3occc3c2)cc1 [Example 7, N-[[(4-methylphenyl)amino]carbonyl]-5-benzofuransulfonamide] | 84

same assay, conditions: Mus musculus, 6C3HED, 120 h; 160 mg/kg, oral gavage, daily for 10 days; tumor measured five days after treatment ended; read-out: Percent Inhibition of tumor growth

Compound | inhibition in vivo at 160 mg/kg [%]
O=C(Nc1ccc(Cl)cc1)NS(=O)(=O)c1ccc2ccoc2c1 [Example 8, N-[[(4-chlorophenyl)amino]carbonyl]-6-benzofuransulfonamide] | 100

same assay, conditions: Mus musculus, 6C3HED, 120 h; 300 mg/kg, oral gavage, daily for 10 days; tumor measured five days after treatment ended; read-out: Percent Inhibition of tumor growth

Compound | inhibition in vivo at 300 mg/kg [%]
O=C(Nc1ccc(Cl)cc1)NS(=O)(=O)c1csc2ccccc12 [Example 12, N-[[(4-chlorophenyl)amino]carbonyl]benzo[B]thiophene-3-sulfonamide] | 69
O=C(Nc1ccc(Cl)cc1)NS(=O)(=O)c1cccc2occc12 [Example 5, N-[[(4-chlorophenyl)amino]carbonyl]-4-benzofuransulfonamide] | 100
O=C(Nc1ccc(Cl)cc1)NS(=O)(=O)c1ccc2cc[nH]c2c1 [Example 10, N-[[(4-chlorophenyl)amino]carbonyl]-lH-indole-6-sulfonamide] | 80
O=C(Nc1ccc(Cl)cc1)NS(=O)(=O)c1cc2ccccc2s1 [Example 11, N-[[(4-chlorophenyl)amino]carbonyl]benzo[B]thiophene-2-sulfonamide] | 66
Cc1ccc(NC(=O)NS(=O)(=O)c2cc3ccccc3o2)cc1 [Example 2, N-[[(4-methylphenyl)amino]carbonyl]-2-benzofuransulfonamide] | 37
O=C(Nc1ccc(Cl)cc1)NS(=O)(=O)c1cc2ccccc2[nH]1 [Example 9, N-[[(4-chlorophenyl)amino]carbonyl]-lH-indole-2-sulfonamide] | 57
O=C(Nc1ccc(Cl)c(Cl)c1)NS(=O)(=O)c1cc2ccccc2o1 [Example 3, N-[[(3,4 dichlorophenyl)amino]carbonyl]-2-benzofuransulfonamide] | 28
Cc1ccc(NC(=O)NS(=O)(=O)c2ccc3occc3c2)cc1 [Example 7, N-[[(4-methylphenyl)amino]carbonyl]-5-benzofuransulfonamide] | 100

same assay, conditions: Mus musculus, 6C3HED, 240 h; 40 mg/kg, second listing (groups of 8), oral gavage, daily for 10 days; read-out: Percent Inhibition of tumor growth

Compound | inhibition in vivo at 40 mg/kg [%]
O=C(Nc1ccc(Cl)cc1)NS(=O)(=O)c1ccc2ccoc2c1 [Example 8, N-[[(4-chlorophenyl)amino]carbonyl]-6-benzofuransulfonamide] | 92

same assay, conditions: Mus musculus, 6C3HED, 240 h; 80 mg/kg, second listing (groups of 8), oral gavage, daily for 10 days; read-out: Percent Inhibition of tumor growth

Compound | inhibition in vivo at 80 mg/kg [%]
O=C(Nc1ccc(Cl)cc1)NS(=O)(=O)c1ccc2ccoc2c1 [Example 8, N-[[(4-chlorophenyl)amino]carbonyl]-6-benzofuransulfonamide] | 98

same assay, conditions: mouse, in vivo

Compound | Toxic/Total (mice which died relative to total number of animals in the group)
O=C(Nc1ccc(Cl)cc1)NS(=O)(=O)c1csc2ccccc12 [Example 12, N-[[(4-chlorophenyl)amino]carbonyl]benzo[B]thiophene-3-sulfonamide] | 0/10
O=C(Nc1ccc(Cl)cc1)NS(=O)(=O)c1cc2ccccc2o1 [Example 1, N-[[(4-chlorophenyl)amino]carbonyl]-2-benzofuransulfonamide] | 4/10
O=C(Nc1ccc(Cl)cc1)NS(=O)(=O)c1ccc2sccc2c1 [Example 13, N-[[(4-chlorophenyl)amino]carbonyl]benzo[B]thiophene-5-sulfonamide] | 0/8
O=C(Nc1ccc(Br)cc1)NS(=O)(=O)c1cc2ccccc2o1 [Example 4, N-[[(4-bromophenyl)amino]carbonyl]-2-benzofuransulfonamide] | 1/10
O=C(Nc1ccc(Cl)cc1)NS(=O)(=O)c1ccc2cc[nH]c2c1 [Example 10, N-[[(4-chlorophenyl)amino]carbonyl]-lH-indole-6-sulfonamide] | 0/10
Cc1ccc(NC(=O)NS(=O)(=O)c2cc3ccccc3o2)cc1 [Example 2, N-[[(4-methylphenyl)amino]carbonyl]-2-benzofuransulfonamide] | 0/10
